Measured values taken from patent US20070275100A1, “Use of gaseous nitric oxide as an anti-cancer agent” (priority 1998, published 2007).
Values joined by “and” are separate entries in the source; they are usually repeats but may differ in a detail not shown here. Equal entries are not always repeated.

Key:
H441 = assay: MTS cell proliferation assay, 25,000 ppm gNO (Example 4), H441; assay type: cell-based, human
Source text: (§1) The purpose of this example is to illustrate the tumorcidal activity of high-dosage gNO. We examined the cellular sensitivity to 25,000 ppm of gNO on 5 non-small cell lung cancer (NSCLC) cells lines by an MTS cell proliferation assay.
(§2) Human lung cancer cell lines A549, NCI-H23, NCI-H460, HTB-58, H2170, and H441 (commercially available from American Type Culture Collection (“ATCC”), Manassas, Va.) were maintained in culture medium recommended by ATCC. All media were supplemented with 1% penicillin/streptomycin and 10% fetal bovine serum (commercially available from Invitrogen Gibco-BRL, Burlington, Ontario, Canada). […]
(§3) After 24 hours, the A549, NCI-H23, NCI-H460, HTB-58, H2170 and H441 cells were treated with 25,000 ppm gNO or air (control) for 1 minute, 3 minutes, 6 minutes, 9 minutes, 10 minutes, 20 minutes, and 30 minutes. Immediately following treatment, the viability of the cells was determined using a colorimetric MTS (3-(4,5-dimethylthiazol-2-yl)-5-(3-carboxymethoxyphenyl)-2-(4-sulfophenyl)-2H-tetrazolium, inner salt) cell proliferation assay (commercially available as the CellTiter 960 Aqueous One Solution Cell Proliferation Assay (MTS) from Promega, Madison, Wis., USA) according to the manufacturer's protocol. […] Absorbance was measured at 490 nm for each well using a micro-plate reader (commercially available from Dynex Technologies, Chantilly, Va., USA). […]

NCI-H23 = assay: MTS cell proliferation assay, 25,000 ppm gNO (Example 4), NCI-H23; assay type: cell-based, human
Source text: as §1, §2, §3

Staphylococcus aureus = assay: High dose gNO on Staphylococcus aureus plated on blood agar (Example 2); assay type: cell-based; conditions: 25,000 ppm gNO
Source text: The purpose of this example is to observe the possibility of a novel bactericidal high dose (25,000 ppm) effect of gaseous nitric oxide (gNO) on an ATCC strain of Staphylococcus aureus plated on a blood agar media and determine a time effect of this dosage.
A closed environment treatment chamber was used (see, “A direct nitric oxide gas delivery system for bacterial and mammalian cell cultures,” A. Ghaffari, D. H. Neil, A. Ardakani, J. Road, A. Ghahary, C. C. Miller. Nitric Oxide 12(3):129-140, 2005, herein incorporated by reference in its entirety). The following steps were performed: • 1. Calibrated the AeroNOx analyzer as per standard procedure. • 2. Calibrated the closed environment treatment chamber as per standard procedure. • 3. In a 50 mL tube, known Staphylococcus aureus bacteria in 10 mL Nutrient Broth was grown overnight or for about 12 hours in a shaker incubator. • 4. Measured optical density of grown Staphylococcus aureus using a spectrophotometer set at 600 nm. Used original nutrient broth as a blank. O.D. should be 1.0±10%. • 5. Turned on closed environment treatment chamber. • 6. Labeled three plates: Air, NO+1 minute, NO+3 minutes. • 7. Immersed a sterile cotton swab into the bacterial mixture in the 50 mL tube and shaked off excess liquid. • 8. Swiped one plate entirely in two directions with the swab. • 9. Repeated steps 7-8 using the cotton swab for the remaining […] plates. • 10. Using clean technique, utilized the device to administer either air or 25,000 ppm gNO at a fixed distance and flow towards the inoculated agar media. The agar plate was enclosed in an isolated plastic box with lid. A micropipette through which the gas flowed was affixed to the box lid. The box lid was sealed through the use of plastic wrap. The micropipette was in fluid communication with the gaseous mixing manifold in order to deliver the specified concentrations. • 11. Placed the three treated plates into the laboratory incubator. • 12. Removed plates after 8 hours and placed in a 37° C. incubator for 12-16 hours. • 13. After incubation, recorded results with digital pictures. • 14. Sealed plates with paraffin and refrigerated for storage.

[1] = tested on: H460-epithelial metastatic; large cell lung cancer cells; assay: MTS proliferation assay, H460 cells under continuous gNO exposure (Example 1); assay type: cell-based, human
Source text: (gNO) 200 ppm and 350 ppm compared to air (control) on the survival of a representative line of cancer cells. […] […] The plates then were removed and cell viability assessed by an MTS proliferation assay.
When exposed to 350 ppm of gNO, however, cancer cell survival rates decrease dramatically.

[2] = 350 ppm NO, 2 hours, RPMI medium
[3] = 350 ppm NO, 2 hours, RPMI medium, listed as NO

[N]=O [gNO, nitric oxide]
IC50 (exposure time) (H441): about 7 minutes
viability at 25000 ppm (H441; Homo sapiens, NCI-H441, 0.15 h, at 9 minutes): ~17%
IC50 (exposure time) (NCI-H23): about 6 minutes
viability at 25000 ppm (NCI-H23; Homo sapiens, NCI-H23, 0.15 h, at 9 minutes): ~24%
effect on the growth of S. aureus (Staphylococcus aureus; 1 minute): profound inhibitory effect
plate appearance after incubation (FIG. 4) (Staphylococcus aureus; 1 minute of exposure): the plate still shows signs of the S. aureus
effect on the growth of S. aureus (Staphylococcus aureus; 3 minutes): possible cidal effect
plate appearance after incubation (FIG. 5) (Staphylococcus aureus; 3 minutes of exposure): the plate shows no signs of the S. aureus
Average [1, 2]: 0.158
Survival [1, 2]: about 0%
Corrected Average ([1]; 350 ppm NO, 2 hours, RPMI medium, blank subtracted): 0.037
MTS assay reading, individual wells [1, 3]: 0.193 and 0.147 and 0.152 and 0.154 (2×) and 0.156 and 0.172 and 0.157 and 0.149 (2×) and 0.165 and 0.155 and 0.158 and 0.145 and 0.184 and 0.143
Survival [1, 3]: 2%
survivability ([1]; 350 ppm gNO, 24 hours continuous exposure, compared to air (control)): 2%
